Values of other authors as cited in patent publication US6416793B1, “Formulations and use of controlled-release indole alkaloids” (BioResponse, L.L.C., priority 2000, dated 2002).
Structures can show the parent of a compound that is named as a salt.

How the values were obtained:
[1] = system: dogs; settings: 0.4 mg/kg/day
[2] = system: overweight female subjects; settings: three weeks
[3] = system: obese and non-obese women; settings: in vivo
[4] = system: overweight men; settings: 16.2 to 43.2 mg/day, six month period
[5] = system: humans
[6] = system: diet-restricted animals
[7] = tableted preparations of pure yohimbine

Q: With yohimbine as the compound, how does the body weight [1] read?
A: rapid loss of body weight

Q: What about the daily food intake ([1]; rapidly absorbed pure yohimbine) of the same compound?
A: dramatic reduction in daily food intake

Q: And the “continued weight loss versus placebo” value ([2]; 5 mg 4 times per day (20 mg/day), weight loss diet)?
A: Significantly greater continued weight loss

Q: What about the “energy expenditure during exercise” value ([2]; 20 mg/day) of the same compound?
A: greater energy expenditure in the treated group during exercise

Q: What about the “circulating levels of norepinephrine” value [3] of the same compound?
A: increase circulating levels of norepinephrine

Q: Which “additional weight loss versus placebo” value [4] does the source give for `COC(=O)[C@@H]1[C@H]2C[C@H]3c4[nH]c5ccccc5c4CCN3C[C@@H]2CC[C@@H]1O` [yohimbine Hcl, (16 alpha, 17 alpha)-17-hydroxyyohimban-16-carboxylic acidmethyl ester hydrochloride] here?
A: failed to show advantage in additional weight loss over placebo

Q: Which results are given for `O=C(O[C@@H]1Cc2c(O)cc(O)cc2O[C@@H]1c1cc(O)c(O)c(O)c1)c1cc(O)c(O)c(O)c1` [epigallocatechin gallate (EGCG), epigallocatechin gallate]?
A: resting energy expenditure [5]: increase resting energy expenditure in humans; rate of weight loss [6]: increase the rate of weight loss in diet-restricted animals

Q: For `COC(=O)[C@@H]1[C@H]2C[C@H]3c4[nH]c5ccccc5c4CCN3C[C@@H]2CC[C@@H]1O` [yohimbine], which plasma half life [7] is on record?
A: less than 1 hour
